Experimental data taken from US20090325944A1, “Methods and Compositions for Modulating Glycosylation” (priority 2006, published 2009).

Biological target: T1, sOGT (Homo sapiens, UniProt O15294)
T1 construct: ncOGT and sOGT are identical to known splice variants; His8 (C); made in house; host or cells: E. coli BL21(DE3)
T1 sequence (O15294 1-665 isoform O15294-4): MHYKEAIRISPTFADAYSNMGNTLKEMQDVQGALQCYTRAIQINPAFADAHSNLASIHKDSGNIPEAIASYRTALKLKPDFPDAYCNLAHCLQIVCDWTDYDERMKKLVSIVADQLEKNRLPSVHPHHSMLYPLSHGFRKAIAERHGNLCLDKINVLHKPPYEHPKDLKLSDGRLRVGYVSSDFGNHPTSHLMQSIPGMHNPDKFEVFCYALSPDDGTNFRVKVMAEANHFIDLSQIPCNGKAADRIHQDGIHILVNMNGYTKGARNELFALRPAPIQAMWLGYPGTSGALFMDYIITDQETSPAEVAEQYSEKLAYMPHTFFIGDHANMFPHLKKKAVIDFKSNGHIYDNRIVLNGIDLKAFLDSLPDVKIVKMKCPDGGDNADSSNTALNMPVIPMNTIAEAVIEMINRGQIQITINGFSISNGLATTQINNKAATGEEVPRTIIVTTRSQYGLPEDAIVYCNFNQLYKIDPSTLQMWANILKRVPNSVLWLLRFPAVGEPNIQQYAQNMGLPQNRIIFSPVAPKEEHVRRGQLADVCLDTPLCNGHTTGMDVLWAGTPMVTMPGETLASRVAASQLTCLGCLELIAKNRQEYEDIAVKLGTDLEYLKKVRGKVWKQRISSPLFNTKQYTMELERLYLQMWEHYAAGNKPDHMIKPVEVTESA
Assay: Fluorescence polarization displacement of probe 3 from sOGT (validation with UDP and UDP-GlcNAc)
Type: binding
Experimental: 20 μL of this solution is transferred to wells of a 384-well microplate. […] Fluorescence polarization was measured using a Perkin Elmer Envision® microplate reader. Bach series was performed in triplicate and the average of each data point was converted from mP to anisotropy then fitted to the following equation:
[L]0=(KD(Amax−A)/Kd(A−Amin)+1)([E]0−Kd(A−Amin)/(Amax−A)−[t]0(A−Amin)/(Amax−Amin)) eq 3
where A=measured anisotropy at a particular total concentration of ligand (L), sOGT (E) and probe 3 (t), Amin=minimum polarization (i.e., anisotropy of free probe), Amax=final anisotropy (i.e., anisotropy of probe 3 bound entirely to sOGT), KD=dissociation constant of the ligand, Kd=dissociation constant of the probe 3.

O=c1ccn([C@@H]2O[C@H](COP(=O)(O)OP(=O)(O)O)[C@@H](O)[C@H]2O)c(=O)[nH]1 [UDP]
Kd (50 nM probe 3, […] sOGT, ligand 50 μM to 98 nM, read-out: KD (dissociation constant) from displacement of probe 3 from sOGT): 800 ± 300 nM
extent of displacement of probe 3 from sOGT (at high concentrations of ligand): completely displaced probe 3 from sOGT
